Entries after “also recorded” stand apart in the source; their conditions may differ.
Tests used:
[1] = In vitro release of salicylate from anionic ion-exchange fiber through skin (epidermis) in Franz diffusion cells (experiment 3); assay type: in vitro ADME
From the text: (§1) In the experiments below a woven cloth was used comprising a cotton textile fiber (RAIEX AK II) in which […] amine groups (-N^+ (CH3)3) had been grafted to the polysaccaride molecules. The surface weight of the cloth was 200 g/m^2. The thickness of the fiber was 30-40 μm, strength 10-20 kg s/mm^2, break stretch 15-40% and the ion exchanger capacity 3.3 mekv/g.
(§2) For release studies circular discs (diameter 25 mm) were cut from the above mentioned anionic ion-exchange fiber cloth. The fiber discs were washed by 5% NaHCO3 solution in a dropfunnel until all chloride was exchanged (tested by silver nitrate in HNO3 solution). […] The discs containing salicylate were dried in 37° C.
(§3) Drug release in vitro from the fiber discs at 37° C. was tested in Franz diffusion cells (Crown Glass Co. Inc., Somerville, N.J.) (FIG. 1). In the figure reference number 11 denotes the donor compartment, 14 receiver compartment, 15 thermostat, 16 stirring rod and 12 sample tube. […] The dissolution medium was pH 7.4 phosphate buffer saline (PBS, 143 mM, μ=0.15 (μ=ionic strength)) in experiment 1 and pH 7.4 phosphate buffer (6 mM, […]) in experiments 2 and 3. To assess the effect of the skin on drug release (experiment 3), a piece of epidermis 13 was placed between the fiber disc and buffer solution. At fixed times, samples of 250 μl were withdrawn and the drug concentration in the samples were determined by using HPLC (Beckman System Gold, Beckman Instrument, San Ramon, Calif.) with a Supelcosil LC-18-DB column (5 μm, 150×4.6 mm) (Supelco Inc., Rohm and Haab Co., Bellefonte, Pa.). The mobile phase was a binary mixture of methanol (40% v/v) and pH 7.0 phosphate buffer (60%). The detection wavelenght was 298 nm, and the flow rate of 1.0 ml/min, the retention time was 2.6 min.

[2] = pH 7.0 phosphate buffer (200 mM) containing 6.27 g/l NaCl; donor 50 μg/ml; cited from earlier work
[3] = In vitro release of salicylate from anionic ion-exchange fiber discs in Franz diffusion cells, 37° C. (experiments 1 and 2)
From the text: as §1, §2, §3

[4] = Tacrine permeation across human skin in vitro, Side-by-Side diffusion chambers (Example 3); assay type: in vitro ADME
[5] = Delivery of tacrine from acidic fiber ion exchanger to blood through skin, Franz diffusion cell (Example 2); assay type: in vitro ADME; details: 30 mg tacrine per gram of fiber
[6] = cited from earlier work
[7] = Tacrine (-HCl), cited from earlier work
[8] = buffered solution pH=7; 30 mg tacrine per gram of fiber
Procedure: An acidic fiber ion exchanger was treated with this solution, wherein the following reaction occurred:
wherein R is the back bone of the fiber ion exchanger (polypropylene).
The ion exchange performance of this fiber ion-exchanger was tested in a Franz diffusion cell (see FIG. 1) to
a buffered solution (pH=7), and t

[9] = phosphate buffer 6 mM, pH 7,4
Procedure: The cationic fiber discs were washed in 5% HCl solution in a dropfunnel until all sodium was exchanged.
Drug release from the fiber discs was tested in vitro in Franz diffusion cells (Crown Glass Co., Somerville, N.J.) at 37 C. The fiber discs were placed in the diffusion cells so that one side of the cationic ion-exchange fiber was exposed to the dissolution medium (phosphate-buffer6 mM, pH 7,4). Surface area of the fiber discs exposed to the buffer was 0,64 cm^2. […] The column used was Supelcosil LC-18-DB (5 m, 150 mm×4,6 mm), and the mobile phase included 22% of acetonitrile, 1% of triethylamine, and 77% of phosphate buffer at pH 6,5. Detection wavelength was 240 nm and flow rate was 1,0 ml per min.

O=C([O-])c1ccccc1O.[Na+] [Sodium salicylate, sodium salicylate]
release kinetics through skin (in words) ([1]; after initial lag time): followed zero-order kinetic after initial lag time | burst effect with skin (in words) ([1]; with skin): the burst effect disappeared | lag time before steady state release ([1]; with skin): about 2 h | in vitro permeability through skin [2]: about 0.34 μg/cm^2 /h | duration of nearly constant / controlled release (in words) ([3]; anionic ion-exchange fiber, in vitro): two days; also recorded: several days | duration of initial burst ([3]; experiment 1, PBS 143 mM): < 6 h | release rate after initial burst (nearly constant) ([3]; experiment 1, PBS 143 mM, pH 7.4, after initial burst): 20-30 μg/h/cm^2 | release rate in the beginning of the experiment (burst) ([3]; experiment 1, PBS 143 mM, pH 7.4, initial burst): about 350 μg/h/cm^2 | duration of constant release phase ([3]; experiment 2, phosphate buffer 6 mM, μ=0.20): about 50 h | rate of salicylate release during the constant release phase ([3]; experiment 2, phosphate buffer 6 mM, μ=0.20, pH 7.4): about 60 μg/h/cm^2 | release rate and released amount, phosphate buffer vs PBS (in words) ([3]; phosphate buffer (6 mM, μ=0.20) compared with PBS (143 mM, μ=0.15)): higher in phosphate buffer (6 mM, μ=0.20) than in PBS solution (143 mM, μ=0.15)

Nc1c2c(nc3ccccc13)CCCC2 [tacrine, 9-amino-1,2,3,4-tetrahydroacridine]
steady-state flux of tacrine across human skin ([4]; 5% solution, pH 7,4, in vitro): 2,95 g/h per cm^2 | duration of constant drug delivery from the fiber across skin ([4]; cationic ion-exchange fiber): 120 h | delivery of tacrine across the skin from the cationic ion-exchange fiber ([4]; cationic ion-exchange fiber with 3,5% tacrine in HEPES-buffer): about 0,003 g/h per cm^2 | lag-time of permeation ([4]; tacrine solution, human skin, pH 7,4): ca. 24 h | amount of tacrine delivered to blood through skin (in words) [5]: pharmacologically significant amounts | side-effects above clinical concentration (in words) ([6]; above about 5-30 ng/ml, oral): unwanted side-effects are more likely to take place | elimination half-life T1/2 ([6]; human, in vivo): 1,4-3,6 h | first-pass metabolism (in words) ([6]; in vivo): extensive first-pass metabolism | peroral bioavailability ([6]; peroral): 5-35% | solubility in water (in words) [7]: soluble in water | charge at physiological pH (in words) ([7]; physiological pH, assumed): assumed to carry a positive charge | amount of tacrine delivered to buffered solution (in words) [8]: pharmacologically significant amounts | tacrine release rate from the cationic ion-exchange fiber ([9]; during the first 10 hours): about 375 g/h per cm^2 | duration of initial burst of tacrine release ([9]; 37 C.): 6 to 12 h | tacrine released from the fiber after initial burst ([9]; after initial burst of about 6-12 h): 50%
